Measured values: ChEMBL document CHEMBL5465560, “Selectivity Literature for EUbOPEN Chemogenomic Library” (2024)
One block for each molecule: values may come before it.

Experiments:
Ephrin type-A receptor 4 = Ephrin type-A receptor 4 (Homo sapiens, UniProt P54764); test: Selectivity interaction (KinomeScan (DiscoverX)) EUB0001049a EPHA4; conditions: at 1 µM
[1] = target: T1, NUAK family SNF1-like kinase 2 (Homo sapiens) (UniProt Q9H093); test: Selectivity interaction (KinomeScan (DiscoverX)) EUB0001049a NUAK2; conditions: at 1 µM
T1 sequence (whole entry): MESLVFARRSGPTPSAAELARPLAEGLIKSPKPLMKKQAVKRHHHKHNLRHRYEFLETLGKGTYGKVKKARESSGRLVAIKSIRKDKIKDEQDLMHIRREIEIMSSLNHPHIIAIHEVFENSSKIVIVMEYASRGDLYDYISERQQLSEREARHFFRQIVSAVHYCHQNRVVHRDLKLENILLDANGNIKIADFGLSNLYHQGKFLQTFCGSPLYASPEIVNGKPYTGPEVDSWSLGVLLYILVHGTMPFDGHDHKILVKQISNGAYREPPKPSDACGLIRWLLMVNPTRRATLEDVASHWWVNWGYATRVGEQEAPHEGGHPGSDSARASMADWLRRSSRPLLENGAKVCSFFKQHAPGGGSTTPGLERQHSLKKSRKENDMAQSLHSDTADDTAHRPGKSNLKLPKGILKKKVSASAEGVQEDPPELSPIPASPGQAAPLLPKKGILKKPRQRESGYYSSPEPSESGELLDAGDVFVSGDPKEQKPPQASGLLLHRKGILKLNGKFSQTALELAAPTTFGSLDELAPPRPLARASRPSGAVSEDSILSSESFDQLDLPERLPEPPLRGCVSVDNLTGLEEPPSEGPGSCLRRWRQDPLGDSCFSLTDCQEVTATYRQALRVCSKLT

[2] = target: Serine/threonine-protein kinase 26 (Homo sapiens, UniProt Q9P289); test: Selectivity interaction (Ambit KINOMEscan and KiNATiv profiling in Jurkat cells) EUB0000090b STK26; format: cell-based; conditions: at 1 µM
[3] = target: Tyrosine-protein kinase CSK (Homo sapiens) (UniProt P41240); test: Selectivity interaction (ActivX KiNativ screen (kinase selectivity in THP-1 cell lysates)) EUB0000639a CSK; format: subcellular; conditions: lysate, at 0.01 µM
[4] = target: Histone-lysine N-methyltransferase SETD2 (Homo sapiens) (UniProt Q9BYW2); conditions: at 10 µM
[5] = target: T2, Histone-lysine N-methyltransferase EHMT1 (Homo sapiens) (UniProt Q9H9B1); test: Selectivity interaction (Transferase panel (protein, RNA, and DNA methyltransferases. and EP300 (acetyltransferase))) EUB0000270b EHMT1
T2 sequence (whole entry): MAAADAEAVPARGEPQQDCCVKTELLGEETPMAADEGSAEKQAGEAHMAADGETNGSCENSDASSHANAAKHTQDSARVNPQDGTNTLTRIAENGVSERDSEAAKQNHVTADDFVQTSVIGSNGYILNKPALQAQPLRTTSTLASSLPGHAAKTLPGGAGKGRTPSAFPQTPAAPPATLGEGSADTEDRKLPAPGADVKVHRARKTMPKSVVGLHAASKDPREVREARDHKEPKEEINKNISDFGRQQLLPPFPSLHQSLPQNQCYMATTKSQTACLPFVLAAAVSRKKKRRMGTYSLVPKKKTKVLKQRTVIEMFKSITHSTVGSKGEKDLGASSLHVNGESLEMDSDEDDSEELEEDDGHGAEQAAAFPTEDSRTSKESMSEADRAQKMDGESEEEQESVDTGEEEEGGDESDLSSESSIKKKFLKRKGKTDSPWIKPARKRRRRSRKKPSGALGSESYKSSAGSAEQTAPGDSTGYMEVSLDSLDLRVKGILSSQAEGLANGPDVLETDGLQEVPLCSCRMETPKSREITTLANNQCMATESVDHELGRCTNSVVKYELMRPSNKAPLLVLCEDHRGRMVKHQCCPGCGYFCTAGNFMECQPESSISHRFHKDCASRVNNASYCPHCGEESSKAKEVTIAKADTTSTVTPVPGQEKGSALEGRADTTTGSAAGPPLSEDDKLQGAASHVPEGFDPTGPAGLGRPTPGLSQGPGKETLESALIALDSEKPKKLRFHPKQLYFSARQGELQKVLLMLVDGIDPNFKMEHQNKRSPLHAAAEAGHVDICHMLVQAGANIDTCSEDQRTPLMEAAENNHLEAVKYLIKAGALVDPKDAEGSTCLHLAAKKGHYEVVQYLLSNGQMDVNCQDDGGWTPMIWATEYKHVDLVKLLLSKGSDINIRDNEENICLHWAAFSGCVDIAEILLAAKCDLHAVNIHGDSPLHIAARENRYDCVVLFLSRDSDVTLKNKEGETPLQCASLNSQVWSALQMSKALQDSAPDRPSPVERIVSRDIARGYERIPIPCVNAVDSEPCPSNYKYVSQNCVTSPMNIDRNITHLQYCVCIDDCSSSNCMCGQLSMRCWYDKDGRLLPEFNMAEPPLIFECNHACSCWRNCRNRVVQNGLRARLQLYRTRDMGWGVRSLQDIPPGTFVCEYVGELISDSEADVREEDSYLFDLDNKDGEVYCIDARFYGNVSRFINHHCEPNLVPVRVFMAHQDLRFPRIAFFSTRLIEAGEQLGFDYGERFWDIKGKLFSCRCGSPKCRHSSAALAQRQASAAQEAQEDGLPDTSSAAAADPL

[6] = target: Phosphatidylinositol 4-kinase beta (Homo sapiens, UniProt Q9UBF8); test: Selectivity interaction (Adapta Assay) EUB0001632a PI4KB; conditions: at 10 µM
[7] = target: Mitogen-activated protein kinase kinase kinase 10 (Homo sapiens) (UniProt Q02779); test: Selectivity interaction (LanthaScreen Eu Kinase Binding Assay) EUB0001632a MAP3K10; conditions: at 10 µM
[8] = target: Calcium/calmodulin-dependent protein kinase kinase 2 (Homo sapiens) (UniProt Q96RR4); test: Selectivity interaction (KinomeScan (DiscoverX)) EUB0000045b CAMKK2
[9] = target: cAMP-dependent protein kinase catalytic subunit alpha (Homo sapiens, UniProt P17612); test: Selectivity interaction (KinomeScan (DiscoverX)) EUB0001619a PRKACA; conditions: at 1 µM
[10] = target: Tyrosine-protein kinase JAK2 (Homo sapiens, UniProt O60674); test: Selectivity interaction (SelectScreen Kinase Profiling (Thermo Fisher Scientific)) EUB0001558a JAK2; conditions: at 1 µM
Chain of Tyrosine-protein kinase JAK2 (O60674 whole entry): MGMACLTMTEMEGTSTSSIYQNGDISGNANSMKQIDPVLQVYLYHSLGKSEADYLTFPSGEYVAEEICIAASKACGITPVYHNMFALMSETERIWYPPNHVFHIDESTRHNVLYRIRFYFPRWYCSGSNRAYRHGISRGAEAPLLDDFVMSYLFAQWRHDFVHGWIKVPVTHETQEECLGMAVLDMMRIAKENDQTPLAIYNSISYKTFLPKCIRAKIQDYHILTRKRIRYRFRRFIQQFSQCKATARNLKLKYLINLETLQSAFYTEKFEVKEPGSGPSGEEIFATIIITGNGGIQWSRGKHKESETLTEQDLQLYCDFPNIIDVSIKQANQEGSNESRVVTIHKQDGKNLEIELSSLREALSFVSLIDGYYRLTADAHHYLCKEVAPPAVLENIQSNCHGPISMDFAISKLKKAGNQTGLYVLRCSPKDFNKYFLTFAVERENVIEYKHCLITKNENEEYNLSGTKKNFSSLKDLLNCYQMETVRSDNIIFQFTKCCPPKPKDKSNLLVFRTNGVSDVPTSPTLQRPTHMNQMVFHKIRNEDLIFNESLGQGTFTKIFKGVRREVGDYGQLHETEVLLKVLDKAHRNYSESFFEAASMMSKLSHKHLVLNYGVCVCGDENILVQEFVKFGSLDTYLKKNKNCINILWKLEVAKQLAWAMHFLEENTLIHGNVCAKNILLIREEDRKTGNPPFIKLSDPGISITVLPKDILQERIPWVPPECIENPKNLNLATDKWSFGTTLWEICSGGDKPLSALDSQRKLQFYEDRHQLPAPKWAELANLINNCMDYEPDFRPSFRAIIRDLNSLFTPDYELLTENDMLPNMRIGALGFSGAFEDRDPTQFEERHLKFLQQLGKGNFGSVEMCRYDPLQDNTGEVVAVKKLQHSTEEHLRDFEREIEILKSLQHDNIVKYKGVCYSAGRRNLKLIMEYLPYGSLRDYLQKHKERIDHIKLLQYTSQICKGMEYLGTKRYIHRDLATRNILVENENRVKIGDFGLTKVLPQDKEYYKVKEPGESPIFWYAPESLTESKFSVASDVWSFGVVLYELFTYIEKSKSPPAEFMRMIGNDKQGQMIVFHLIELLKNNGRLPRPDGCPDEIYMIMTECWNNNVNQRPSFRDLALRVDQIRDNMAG

Chain of Calcium/calmodulin-dependent protein kinase kinase 2 (Homo sapiens) (Q96RR4 2-588 limits assumed): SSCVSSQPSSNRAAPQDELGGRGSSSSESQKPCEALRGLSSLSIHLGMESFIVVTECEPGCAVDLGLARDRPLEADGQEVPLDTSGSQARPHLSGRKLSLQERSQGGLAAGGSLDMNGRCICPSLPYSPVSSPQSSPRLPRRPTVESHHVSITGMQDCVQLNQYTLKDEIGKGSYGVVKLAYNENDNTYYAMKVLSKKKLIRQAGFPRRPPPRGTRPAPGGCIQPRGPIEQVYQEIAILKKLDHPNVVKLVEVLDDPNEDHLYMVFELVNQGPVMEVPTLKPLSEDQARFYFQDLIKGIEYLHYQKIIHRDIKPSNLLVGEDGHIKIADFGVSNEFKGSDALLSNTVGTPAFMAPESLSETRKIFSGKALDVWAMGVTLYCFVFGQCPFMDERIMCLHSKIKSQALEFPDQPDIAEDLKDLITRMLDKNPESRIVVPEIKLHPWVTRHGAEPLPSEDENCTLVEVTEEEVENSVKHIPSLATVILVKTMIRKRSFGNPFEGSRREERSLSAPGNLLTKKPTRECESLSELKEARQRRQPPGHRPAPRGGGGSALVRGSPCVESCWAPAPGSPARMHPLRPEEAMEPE
Chain of Serine/threonine-protein kinase 26 (Q9P289 2-416 limits assumed): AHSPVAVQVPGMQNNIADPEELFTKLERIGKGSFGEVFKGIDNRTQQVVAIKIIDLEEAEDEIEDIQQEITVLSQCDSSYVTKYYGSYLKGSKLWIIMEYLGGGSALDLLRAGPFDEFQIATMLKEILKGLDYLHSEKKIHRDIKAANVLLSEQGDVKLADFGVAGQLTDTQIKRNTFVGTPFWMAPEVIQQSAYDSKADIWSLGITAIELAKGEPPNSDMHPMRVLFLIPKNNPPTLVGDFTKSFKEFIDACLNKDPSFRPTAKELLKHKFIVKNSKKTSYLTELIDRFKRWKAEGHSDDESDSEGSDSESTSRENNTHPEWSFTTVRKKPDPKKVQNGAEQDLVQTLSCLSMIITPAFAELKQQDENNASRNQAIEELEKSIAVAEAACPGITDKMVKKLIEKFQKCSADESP
Chain of Ephrin type-A receptor 4 (P54764 whole entry): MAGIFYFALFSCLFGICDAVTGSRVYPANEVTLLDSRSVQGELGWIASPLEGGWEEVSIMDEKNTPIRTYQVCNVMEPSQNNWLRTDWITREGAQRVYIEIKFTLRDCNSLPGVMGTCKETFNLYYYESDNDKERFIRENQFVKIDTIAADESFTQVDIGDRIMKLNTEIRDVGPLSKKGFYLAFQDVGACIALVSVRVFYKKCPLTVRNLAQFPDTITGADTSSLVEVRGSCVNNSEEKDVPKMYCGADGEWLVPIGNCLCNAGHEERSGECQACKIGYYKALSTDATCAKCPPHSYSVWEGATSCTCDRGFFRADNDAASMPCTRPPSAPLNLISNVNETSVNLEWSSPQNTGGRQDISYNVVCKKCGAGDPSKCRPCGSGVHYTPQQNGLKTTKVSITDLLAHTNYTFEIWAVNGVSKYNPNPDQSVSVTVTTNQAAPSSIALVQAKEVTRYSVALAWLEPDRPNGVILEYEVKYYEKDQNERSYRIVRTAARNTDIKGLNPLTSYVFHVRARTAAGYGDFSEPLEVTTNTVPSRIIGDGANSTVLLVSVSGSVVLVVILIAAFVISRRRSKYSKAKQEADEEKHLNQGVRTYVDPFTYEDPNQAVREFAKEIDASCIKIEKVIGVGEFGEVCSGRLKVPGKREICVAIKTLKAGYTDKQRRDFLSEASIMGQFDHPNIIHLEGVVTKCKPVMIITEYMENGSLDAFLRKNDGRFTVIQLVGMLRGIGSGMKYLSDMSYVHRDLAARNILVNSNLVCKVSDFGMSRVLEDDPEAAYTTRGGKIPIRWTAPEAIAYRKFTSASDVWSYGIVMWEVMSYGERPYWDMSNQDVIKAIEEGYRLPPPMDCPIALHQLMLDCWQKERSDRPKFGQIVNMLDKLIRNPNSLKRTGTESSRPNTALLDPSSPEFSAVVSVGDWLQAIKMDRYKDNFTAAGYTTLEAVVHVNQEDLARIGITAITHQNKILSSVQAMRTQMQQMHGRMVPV
Chain of Mitogen-activated protein kinase kinase kinase 10 (Homo sapiens) (Q02779 whole entry, looked up): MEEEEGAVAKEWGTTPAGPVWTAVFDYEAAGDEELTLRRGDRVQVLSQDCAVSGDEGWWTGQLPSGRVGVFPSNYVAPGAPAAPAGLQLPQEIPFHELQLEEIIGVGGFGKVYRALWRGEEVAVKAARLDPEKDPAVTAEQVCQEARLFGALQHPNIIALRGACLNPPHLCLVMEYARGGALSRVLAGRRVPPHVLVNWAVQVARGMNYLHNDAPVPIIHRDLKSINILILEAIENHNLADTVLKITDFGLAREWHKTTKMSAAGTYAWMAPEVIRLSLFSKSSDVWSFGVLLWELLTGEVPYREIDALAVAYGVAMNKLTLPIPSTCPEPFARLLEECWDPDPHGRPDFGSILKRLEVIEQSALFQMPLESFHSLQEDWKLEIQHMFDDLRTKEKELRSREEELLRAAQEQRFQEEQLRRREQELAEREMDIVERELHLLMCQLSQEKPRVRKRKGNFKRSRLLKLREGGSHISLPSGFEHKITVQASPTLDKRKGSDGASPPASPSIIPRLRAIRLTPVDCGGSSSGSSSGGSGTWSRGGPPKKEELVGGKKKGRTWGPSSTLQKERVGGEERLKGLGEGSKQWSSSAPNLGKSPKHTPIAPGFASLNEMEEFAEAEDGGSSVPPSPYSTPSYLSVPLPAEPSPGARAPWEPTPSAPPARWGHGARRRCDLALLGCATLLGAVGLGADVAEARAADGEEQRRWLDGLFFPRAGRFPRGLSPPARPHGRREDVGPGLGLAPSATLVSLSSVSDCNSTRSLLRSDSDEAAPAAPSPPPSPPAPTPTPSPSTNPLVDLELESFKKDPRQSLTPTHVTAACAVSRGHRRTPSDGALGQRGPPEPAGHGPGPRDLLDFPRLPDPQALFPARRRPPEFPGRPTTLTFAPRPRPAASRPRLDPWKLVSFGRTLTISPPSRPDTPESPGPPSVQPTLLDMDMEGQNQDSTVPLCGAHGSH
Chain of Tyrosine-protein kinase CSK (Homo sapiens) (P41240 2-450 limits assumed): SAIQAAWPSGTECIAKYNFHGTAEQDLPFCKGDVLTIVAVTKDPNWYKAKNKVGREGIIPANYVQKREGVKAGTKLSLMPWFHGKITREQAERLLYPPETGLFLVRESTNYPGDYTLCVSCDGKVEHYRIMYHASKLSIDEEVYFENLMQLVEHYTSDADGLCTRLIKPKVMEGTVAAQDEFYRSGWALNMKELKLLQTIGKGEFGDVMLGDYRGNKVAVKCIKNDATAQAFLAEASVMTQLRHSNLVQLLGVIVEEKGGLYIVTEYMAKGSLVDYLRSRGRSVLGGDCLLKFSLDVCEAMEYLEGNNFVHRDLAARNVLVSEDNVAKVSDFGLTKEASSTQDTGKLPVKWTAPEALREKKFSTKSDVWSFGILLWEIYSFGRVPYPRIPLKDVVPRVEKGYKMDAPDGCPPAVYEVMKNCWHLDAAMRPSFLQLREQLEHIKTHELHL

SMILES: COc1cc(Nc2nc(C)cc(-c3cnn4nc(OC)ccc34)n2)cc(C(F)(F)F)c1
% of control (Ephrin type-A receptor 4): 100%
% of control [1]: 93%

SMILES: CN(C)C/C=C/C(=O)Nc1ccc(C(=O)N2CCCC(Nc3ncc(Cl)c(-c4c[nH]c5ccccc45)n3)C2)cc1 (stereo not drawn)
% of control [2]: 88%

% of inhibition [3]: 2.3%
SMILES: CC[C@@H]1[C@H](F)C(=O)N[C@@H]1COc1nccc2cc(C(N)=O)c(OC)cc12 [ZIMLOVISERTIB]

% activity [4]: > 90%
SMILES: CNCCN1CCC(c2cc(CN(C)C(=O)c3cccc(Oc4ccccc4)c3)ccn2)CC1

% activity ([5]; at 1 µM): > 90%
% activity ([5]; at 10 µM): > 80%
SMILES: Cc1cc(CN)cc(C)c1-c1ncn(C)c1-c1cncn1C

% of inhibition [6]: -10.8%
% of inhibition [7]: -1.64%
SMILES: Cn1cc(-n2cnc3c(NCc4nc5cc(Cl)c(Cl)cc5[nH]4)nc(N4CCOCC4)nc32)cn1

SMILES: C=CC(=O)Nc1cc(-n2c(=O)ccc3cnc4ccc(-c5ccc(NS(C)(=O)=O)cc5)cc4c32)ccc1C
% of control ([8]; at 1 µM): 100%
% of control ([8]; at 10 µM): 92%

SMILES: N#Cc1cccc(-c2c[nH]c3ncnc(N4CCOCC4)c23)c1
% of control [9]: 94%

SMILES: CC(C)(O)[C@H](F)CN1Cc2cc(NC(=O)c3cnn4cccnc34)c(N3CCOCC3)cc2C1=O
% of inhibition [10]: 80.5%
